Data on ten compounds can be found in patent publication US20250011288A1 (BRISTOL-MYERS SQUIBB COMPANY, priority 2021, published 2025).

Tested on in one data set: not given
Experiment: not given
To be noted: intravenous (IV) formulation; cited from earlier work.
Regarding Serelaxin, the first-phase pharmacokinetic half-life is 5.4 min.

A further data set concerns the target T1, human RXFP1 (Homo sapiens, UniProt Q9HBX9).
T1 construct: expressed in transfected cells
T1 sequence (Q9HBX9 1-757): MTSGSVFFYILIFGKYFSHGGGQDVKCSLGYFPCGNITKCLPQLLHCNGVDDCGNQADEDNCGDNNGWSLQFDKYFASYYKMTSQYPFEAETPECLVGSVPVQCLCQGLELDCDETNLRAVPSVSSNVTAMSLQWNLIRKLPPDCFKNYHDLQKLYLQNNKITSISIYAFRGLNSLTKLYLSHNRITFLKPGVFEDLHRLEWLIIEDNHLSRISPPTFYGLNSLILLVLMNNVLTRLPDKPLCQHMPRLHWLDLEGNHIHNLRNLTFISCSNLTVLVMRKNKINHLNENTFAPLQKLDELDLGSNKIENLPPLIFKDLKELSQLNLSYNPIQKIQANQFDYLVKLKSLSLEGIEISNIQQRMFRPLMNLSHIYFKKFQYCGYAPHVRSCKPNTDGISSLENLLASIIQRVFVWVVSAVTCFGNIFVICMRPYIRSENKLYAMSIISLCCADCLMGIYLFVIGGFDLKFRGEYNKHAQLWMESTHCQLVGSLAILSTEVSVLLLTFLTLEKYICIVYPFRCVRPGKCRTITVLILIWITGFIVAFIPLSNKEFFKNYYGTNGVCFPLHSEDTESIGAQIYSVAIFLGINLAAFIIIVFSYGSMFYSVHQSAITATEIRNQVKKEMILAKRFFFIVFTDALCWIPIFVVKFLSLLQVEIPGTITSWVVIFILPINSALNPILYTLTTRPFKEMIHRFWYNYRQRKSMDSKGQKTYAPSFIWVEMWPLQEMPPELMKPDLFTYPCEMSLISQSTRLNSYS
As to the kind of experiment: human RXFP1 (hRXFP1) HEK293 cAMP assay (HTRF). In kind it is cell-based. Conditions: HEK293 cells stably expressing human RXFP1, 30 min at room temperature. The essentials:
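Intracellular cAMP was quantified by HTRF after a 30 min room-temperature exposure of hRXFP1-HEK293 cells (1500/well) to compound at 0.010 nM–50 µM final, 2% DMSO. Buffer was HBSS with 20 mM HEPES, 0.05% BSA and 0.5 mM IBMX; values came from a 4-parameter logistic fit.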
Regarding `COc1ncc(C2=NO[C@@H]3C[C@H](CO)CN23)cc1C(=O)N[C@@H]1C2CCC(/C2=C/C2CCCC2)[C@@H]1C(=O)Nc1ccc(F)c(C(F)(F)F)c1` (stereo partly drawn) [Example 133, N-((1R,2R,3S,4R,Z)-7-(cyclopentyl-methylene)-3-((4-fluoro-3-(trifluoromethyl)phenyl)carbamoyl)bicyclo[2.2.1]heptan-2-yl)-5-((6S,7aR)-6-(hydroxymethyl)-5,6,7,7a-tetrahydropyrrolo [1,2-d][1,2,4]oxadiazo 1-3-yl)-2-methoxynicotinamide], a half-maximal response (EC50) required 2.1 nM.

Take `COc1cnc(-c2cc([C@H](OC(=O)Nc3ccccc3)C(F)(F)F)ccc2F)cc1C(=O)N[C@@H]1C2CCC(/C2=C/C(F)(F)F)[C@@H]1C(=O)Nc1ccc(F)c(C(F)(F)F)c1` (stereo partly drawn) [Example 38, (1S)-2,2,2-trifluoro-1-14-fluoro-3-(4-{[(2R,3S,7Z)-3-{[4-fluoro-3-(trifluoromethyl)phenyl]carbamoyl}-7-(2.2,2-trifluoroethylidene)bicyclo[2.2.1]heptan-2-yl]carbamoyl}-5-methoxypyridin-2-yl)phenyl]ethyl N-phenylcarbamate]: a half-maximal response (EC50) required 63 nM.

In the case of `O=C(O)c1cccc(C2=NOC(C(=O)N[C@@H]3C4CCC(/C4=C/C(F)(F)F)[C@@H]3C(=O)Nc3ccc(F)c(C(F)(F)F)c3)C2)c1` (stereo partly drawn) [Example 33, 3-(5-{[(2R,3S,7Z)-3-{[4-fluoro-3-(trifluoromethyl)phenyl]carbamoyl}-7-(2,2,2-trifluoroethylidene)bicyclo[2.2.1]heptan-2-yl]carbamoyl}-4,5-dihydro-1,2-oxazol-3-yl)benzoic acid], a half-maximal response (EC50) required 4400 nM.

In the case of `COc1ncc(-c2cc(C(=O)O)ccc2F)nc1C(=O)N[C@H]1[C@@H](C(=O)Nc2ccc(F)c(C(F)(F)F)c2)[C@H]2CC[C@@H]1/C2=C\c1cnoc1` [Example 26, 4-fluoro-3-(6-(((1R,2R,3S,4R,Z)-3-((4-fluoro-3-(trifluoromethyl)phenyl)carbamoyl)-7-(isoxazol-4-ylmethylene)bicyclo[2.2.1]heptan-2-yl)carbamoyl)-5-methoxypyrazin-2-yl)benzoic acid], the EC50 – broadly, the concentration giving half of the maximal effect – was determined as 76 nM.

`COc1ncc(C2=NOC3CC(C(OC(=O)NC4CCC4)C4CC4)CC23)cc1C(=O)N[C@@H]1C2CCC(/C2=C/C2CC(F)(F)C2)[C@@H]1C(=O)Nc1ccc(F)c(C(F)(F)F)c1` (stereo partly drawn) [Example 161, cyclopropyl[3-(5-{[(2R,3S,7Z)-7-[(3,3-difluorocyclobutyl)methylidene]-3-{[4-fluoro-3-(trifluoromethyl)phenyl]carbamoyl}bicyclo[2.2.1]heptan-2-yl]carbamoyl}-6-methoxypyridin-3-yl)-3aH,4H,5H,6H, 6aH-cyclopenta[d][1,2]oxazol-5-yl]methyl N-cyclobutylcar-bamate] returned an EC50 of 9 nM.

Regarding `CC1(C)Cc2cc(C3=NOC4CCOCC34)cc(C(=O)N[C@H]3[C@@H](C(=O)Nc4ccc(F)c(C(F)(F)F)c4)[C@H]4CC[C@@H]3/C4=C\C3CC3)c2O1` (stereo partly drawn) [Example 147, 5-{3aH,4H,6H, 7H,7aH-pyrano[3,4-d][1,2]oxazol-3-yl}-N-[(1R,2R,3S,4R,7Z)-7-(cyclopropyl-methylidene)-3-{[4-fluoro-3-(trifluoromethyl)phenyl]carbamoyl}bicyclo[2.2.1]heptan-2-yl]-2,2-dimethyl-2,3-dihydro-1-benzofuran-7-carboxamide], the EC50 was found to be 3.8 nM.

`CC1(C)Cc2cc(C3=NOC4COCC34)cc(C(=O)N[C@@H]3C4CCC(/C4=C/C4CC4)[C@@H]3C(=O)Nc3ccc(F)c(C(F)(F)F)c3)c2O1` (stereo partly drawn) [Example 145, 5-{3aH,4H,6H,6aH-furo[3,4-d][1,2]oxazol-3-yl}-N-[(1R,2R,3S, 4R,7Z,)-7-(cyclopropyl-methylidene)-3-{[4-fluoro-3-(trifluoromethyl)phenyl]carbamoyl}bicyclo[2.2.1]heptan-2-yl]-2,2-dimethyl-2,3-dihydro-1-benzofuran-7-carboxamide] displayed an EC50 of 3 nM.

The compound `COc1ncc(C2=NOC3CC(CO)CC23)cc1C(=O)N[C@@H]1C2CCC(/C2=C/C2CC2)[C@@H]1C(=O)Nc1ccc(F)c(C(F)(F)F)c1` (single isomer, unassigned) [Example 70] came in with a concentration giving a half-maximal response (EC50) of 2.3 nM.

In turn, `COc1ncc(C2=NOC3CC(CO)CC23)cc1C(=O)N[C@H]1[C@@H](C(=O)Nc2ccc(F)c(C(F)(F)F)c2)[C@H]2CC[C@@H]1/C2=C\C1CCCC1` (stereo partly drawn) [Example 101, N-((1R,2R,3S,4R,Z)-7-(cyclopentyl-methylene)-3-((4-fluoro-3-(trifluoromethyl)phenyl)carbamoyl)bicyclo[2.2.1]heptan-2-yl)-5-(5-(hydroxymethyl)-3a,5,6,6a-tetrahydro-4H-cyclopenta[d]isoxazol-3-yl)-2-methoxynicotinamide] displayed a 50% effective concentration (EC50) of 1.6 nM.
